Patent publication US8258123B2, “C-19 steroids for cosmetic and further uses” (ErlaCos GmbH, priority 2007, dated 2012)
“Also recorded” adds a separate entry of the source.

How the values were obtained:
forehead skin = conditions: applied to the forehead skin of patients with acne, 1% solution; cited from earlier work
[1] = loaded to solid lipid nanoparticles; cited from earlier work
sebaceous glands = test: Topical application to the face and other acne-prone skin areas; format: in vivo
Text: (§1) Not only in theory but also in practice the compounds of the present invention and in particular 4-OHT and its related analogous compounds are the ideal anabolic substances. […] This can be deduced from three different topical applications to the skin.

androgen receptor (AR) = test: Binding affinity to the androgen receptor against DHT as reference compound
Experimental: The compounds used according to the present invention preferably have a binding affinity to the androgen receptor (AR) higher than DHT; more preferably the binding affinity is high by having affinity specific to AR in a range of IC50≧500 nM, preferably IC50≧100 nM and more preferably IC50≧50 nM, wherein IC50 is defined as the concentration of the compound required to reduce specific binding of a reference compound, 5α-dihydrotestosterone (DHT), by 50%. The IC50-values can be determined by known methods using radioactively labelled DHT as reference compound, for example by a standard dextran-coated charcoal adsorption method as described by Raynaud et al., J. Steroid Biochem. 6, 615-622 (1975), using 1 nM reference concentrations of radiolabeled [^3H]-DHT, or by similar IC50 determination methods described in the literature. Because the concentration of AR in the target cell is very low, typically in the nanomolar range approximately, differences in binding constants to the order contemplated in the present invention are significant.

hair follicles = test: Topical treatment of body skin areas, hair growth; format: in vivo
Text: The situation in the body regions other than the scalp however is different. Sometimes hair growing excessively on other parts of the body is a nuisance. They are conventionally removed by depilation or epilation. Hot wax epilation restores the growth of hair in many dorming hair follicles (telogen hair) thereby increasing the frequency and painfulness of hot wax epilation. Pubic and axillary hair is sparse or absent in CAIS. Corresponding cell cultures contain as androgen predominantly testosterone and only traces of DHT. Growth of unwanted hair in the corresponding body regions cannot be prevented by blocking of 5α-reductase. According to the present invention, this is possible by blocking the androgen receptor against DHT. In almost all hair follicles (with the exception of scalp, pubic and axillary hair) specific cells of the dermal papilla are driven by DHT to promote hair growth.

[2] = system: skin over the predilection areas of cellulite; test: Topical treatment of the skin over the predilection areas of cellulite; format: in vivo
Text: The border between the two layers is made up of collagen fibres. Strengthening this border by increasing its collagen content by stimulating the fibroblasts to produce more collagen leads to a marked improvement of the appearance of cellulite.

[3] = system: apocrine sweat glands in the axilla; test: Topical application to the axilla, body odour; format: in vivo
Text: as §1
The majority of glands relevant for body odor are situated in the subcutaneous tissue. It is therefore difficult to apply effective substances directly. To this end a substance is preferably included facilitating the penetration into the skin.

aromatase = target: T1, aromatase (Homo sapiens, UniProt P11511); test: Aromatization by aromatase
T1 sequence (P11511 1-503): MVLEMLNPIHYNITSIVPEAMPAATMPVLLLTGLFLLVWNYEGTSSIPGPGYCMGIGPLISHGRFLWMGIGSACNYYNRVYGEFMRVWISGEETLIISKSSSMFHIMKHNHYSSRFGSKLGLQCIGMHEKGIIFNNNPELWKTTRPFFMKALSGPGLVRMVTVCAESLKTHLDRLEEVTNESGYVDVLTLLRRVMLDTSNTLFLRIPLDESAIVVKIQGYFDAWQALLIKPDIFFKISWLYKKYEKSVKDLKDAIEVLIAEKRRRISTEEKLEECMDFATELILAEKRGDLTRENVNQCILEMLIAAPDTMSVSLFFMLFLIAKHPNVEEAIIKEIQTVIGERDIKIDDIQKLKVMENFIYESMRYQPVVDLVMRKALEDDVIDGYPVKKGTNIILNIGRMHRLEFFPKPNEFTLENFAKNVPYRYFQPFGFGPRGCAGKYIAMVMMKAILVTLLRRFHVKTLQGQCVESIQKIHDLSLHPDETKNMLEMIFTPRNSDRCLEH

5α-reductase [4] = test: Reduction by 5α-reductase
striae = test: Topical treatment of striae; format: in vivo; conditions: suitable formulation containing 4-OHT
Text: Striae have also been treated according to the invention with a suitable formulation containing 4-OHT. […] Whereas striae rubrae are more disturbing on a fair skin striae albae are a considerable problem for dark skin.

5α-reductase [5] = test: 5α-reductase inhibition; format: biochemical
Text: According to the present invention, the use may correspondingly be determined by selecting the C-19 steroid compound having the aforementioned effects or properties (iii) to (vi) alone or in combination. These effects or properties (iii) to (vi) can be measured by correspondingly known methods. For example, 5α-reductase activity can be measured by a method described by Mitamura et al., Analytical Sciences 21, 1241-1244 (2005). The use according to the present invention may be further determined by a suitable administrated amount of the compound, and by an appropriate application condition, such as type of user/patient, or type of target site or organ enabling the aforementioned effects or properties (iii) to (vi) alone or in combination.

SMILES | sebum excretion rate (forehead skin) | increase in CPA absorption by the skin [1] | size and capability of sebaceous glands (sebaceous glands) | binding affinity to the AR compared with DHT (androgen receptor (AR)) | type of hair produced by the follicles (hair follicles; after six months) | growth of body hairs (hair follicles; body regions other than scalp) | adipose tissue / adipocytes ([2]; topical) | topical formulation compared with 4-OHA ([2]; topical formulation, collagen content of the skin) | solidification of the skin ([2]; topical preparation, within four weeks) | concentration of collagen fibres ([2]; topical, skin areas over the buttocks) | androgenic effect after application to the skin ([2]; topical, hair growth or pimples) | effect on body odor of the combination with a penetration enhancer ([3]; combination with dimethyl isosorbide (Arlasolve DMI)) | androgen dependent production of volatile fatty acids responsible for body odour ([3]; topical, axilla) | aromatization (aromatase) | 5α-reduction (5α-reductase [4]) | striae rubrae and striae albae (striae) | thickness of the skin (striae) | inhibition of 5α-reductase (5α-reductase [5])
CC(=O)O[C@]1(C(C)=O)CC[C@H]2[C@@H]3C=C(Cl)C4=CC(=O)[C@@H]5C[C@@H]5[C@]4(C)[C@H]3CC[C@@]21C [Cyproterone acetate, cyproterone acetate] | not able to reduce the sebum excretion rate | 2-3 fold | – | – | – | – | – | – | – | – | – | – | – | – | – | – | – | –
C[C@]12CC[C@H]3[C@@H](CCC4=C(O)C(=O)CC[C@@]43C)[C@@H]1CC[C@@H]2O [4-OHT, 4,17β-dihydroxyandrost-4-en-3-one] | – | – | reduces size and capability of sebaceous glands | higher affinity to the AR than DHT | most of the follicles are producing solely vellous hair | grow slower and less dense and in addition thinner and blonder | marked diminution and shrinkage of the adipocytes; also recorded: shrinkage of adipose tissue | superior than 4-OHA | considerable solidification of the skin | anabolically increases the concentration of collagen fibres | no androgenic effect whatsoever could be observed | Optimal results | immediately prevents the androgen dependent production of volatile fatty acids | escapes aromatization or 5α-reduction | escapes aromatization or 5α-reduction | makes them disappear | increasing thickness of the skin | able to inhibit this enzyme (probably both isoforms)
